Read-outs that look alike come from different tables or passages of the source.
How the values were obtained:
[1] = tested on: DLD-1 cells; experiment: Inhibition of proliferation, DLD-1 BRCA2 wt control (Cell Titre Glo 3D); type: cell-based; settings: Homo sapiens
From the text: This assay identifies anti-proliferative effects of POLQ compounds in the homologous recombination deficient colorectal cell line DLD-1 BRCA2−/− over 8-9 population doublings (7 days for DLD-1 and 12 days for DLD-1 BRCA2−/−). DLD1 BRCA2 wt are used as a control to detect cell toxic effects not specific to homologous recombination deficiency.
DLD-1 BRCA2−/− and DLD-1 cells were kept in continuous culture in Assay Medium (RPMI 1640 phenol red free (Sigma R7509) containing 1% GlutaMAX (Gibco 35050) and 10% Foetal Bovine Serum (Gibco 10270-106)). On the day of the assay cells in culture of ˜80-90% confluent were used. Cell monolayers were washed with 10 mL PBS, then removed and added 2 mL TrypLE Express (Gibco 12604). The cells with TrypLE Express were incubated for 5 minutes in cell culture incubator and then the detached cells resuspend in 15 mL Assay Medium. Cells were counted using a ViCell and the cell images were monitored for clumps of cells, ideally they should be single or <3 cell clusters. The cells were diluted to 3,000 cells/mL of DLD-1 BRCA2−/− and 1,500 cells/mL of DLD-1 in Assay Medium and 100 μL added per well of transparent bottomed, black, tissue culture-treated 96-well plates (CoStar, No. 3904) Assay Ready Plates. The Assay Ready Plates contain a 10 point 10 μM to 0.51 nM dose range with three-fold dilutions in DMSO with a final volume of 100 nL. The plates were incubated at 37° C. with 5% C02 for 6 days. On day 6, 100 μL/well of Assay Medium was added to duplicate Assay Ready Plates. 90 μL of culture medium was removed from the cell plates and replenished with the Assay Media and compounds from the duplicate Assay Ready Plates using the Bravo. The plates were further incubated at 37° C. with 5% CO2. On day 7 the plates containing DLD-1 and Cell Titre Glo 3D (Promega G9683) were equilibrated to room temperature, then 60 μL of Cell Titre Glo 3D was added per well and incubated on a shaking platform for 30 min. Plates were read on the Envision measuring luminescence for 1 second per well. On day 12 the plates containing DLD-1 BRCA2−/− cells and Cell Titre Glo 3D (Promega G9683) were equilibrated to room temperature, then 60 μL Cell Titre Glo 3D added per well and incubated on a shaking platform for 30 min. Plates were read on the Envision measuring luminescence for 1 second per well. The data was exported into a suitable software package (such as Genedata) to perform curve fitting analysis. Inhibition of cell proliferation was expressed as an IC5o value and was determined by calculation of the concentration of compound that was required to give a 50% reduction of the average maximum Total Intensity signal.

[2] = tested on: DLD-1 BRCA2−/− cells; experiment: Homologous recombination synthetic lethal inhibition of proliferation, DLD-1 BRCA2-/- (Cell Titre Glo 3D); type: cell-based; settings: Homo sapiens
Method in brief: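 Cells are seeded in RPMI 1640 (phenol red free, 10% FBS, GlutaMAX) onto pre-dosed compound (10 μM to 0.51 nM, three-fold). Plates are incubated at 37 °C, and medium plus compound are refreshed on day 6. Viability is read by CellTiter-Glo 3D at day 7 (DLD-1) or day 12 (DLD-1 BRCA2−/−), and the IC50 is fitted.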

[3] = DLD-1, second proliferation column (c6), DLD-1 BRCA2 wt control, read-out: POLQ PD Prolif Lumin (converted)
[4] = DLD-1, first proliferation column (c5), DLD-1 BRCA2-/-, read-out: POLQ PD Prolif Lumin (converted)
[5] = DLD-1, 168 h, DLD-1 BRCA2 wt cells, 7 days, read-out: POLQ PD Prolif Lumin DLD1 mean pIC50 (converted)
[6] = DLD-1, 288 h, DLD-1 BRCA2−/− cells, 12 days, read-out: POLQ PD Prolif Lumin BRCA2 −/− mean pIC50 (converted)
[7] = DLD-1, DLD-1 BRCA2 wt control proliferation, column head only partly shown, read-out: POLQ PD Prolif Lumin (converted)
[8] = DLD-1, DLD-1 BRCA2-/- proliferation, column head only partly shown, read-out: POLQ PD Prolif Lumin (converted)

## Cc1ccnc(Cn2c(-c3ccc(OC4CNC(=O)OC4)cc3Cl)nc3c(OC4(C)CC4)ncnc32)c1 (racemic) [Example T187, 5-(3-chloro-4-(6-(1-methylcyclopropoxy)-9-((4-methylpyridin-2-yl)methyl)-9H-purin-8-yl)phenoxy)-1,3-oxazinan-2-one]
[1]; [3]
  IC50: > 10 µM
[2]; [4]
  IC50: 1 µM

## CC1(Oc2ncnc3c2nc(-c2ccc(C(N)=O)cc2Cl)n3Cc2ccccc2)CC1 [Example N4, 4-(9-benzyl-6-(1-methylcyclopropoxy)-9H-purin-8-yl)-3-chlorobenzamide]
[1]; [5]
  IC50: > 10 µM
[2]; [6]
  IC50: 0.2 µM

## COc1ccc(Cn2c(-c3ccc(OCCN4CCNCC4)cc3Cl)nc3c(OC4(C)CC4)ncnc32)nc1 [Example T532, 8-(2-chloro-4-(2-(piperazin-1-yl)ethoxy)phenyl)-9-((5-methoxypyridin-2-yl)methyl)-6-(1-methylcyclopropoxy)-9H-purine]
[1]; [3]
  IC50: > 10 µM
[2]; [4]
  IC50: 6.31 µM

## CC1(Oc2ncnc3c2nc(-c2cccc(OCCCCC(=O)O)c2Cl)n3Cc2cccc(Cl)c2)CC1 [Example T292, 5-(2-chloro-3-(9-(3-chlorobenzyl)-6-(1-methylcyclopropoxy)-9H-purin-8-yl)phenoxy)pentanoic acid]
[1]; [7]
  IC50: > 10 µM
[2]; [8]
  IC50: 0.0316 µM

## CC(CCOc1cccc(-c2nc3c(OC4(C)CC4)ncnc3n2Cc2cccc(Cl)c2)c1Cl)C(=O)O (racemic) [Example T293, 4-(2-chloro-3-(9-(3-chlorobenzyl)-6-(1-methylcyclopropoxy)-9H-purin-8-yl)phenoxy)-2-methylbutanoic acid]
[1]; [7]
  IC50: > 3.16 µM
[2]; [8]
  IC50: 0.0316 µM

## CC1(Oc2ncnc3c2nc(-c2ccc(OCCN4CCNCC4)cc2Cl)n3Cc2ccc(C#N)cn2)CC1 [Example T484, 6-((8-(2-chloro-4-(2-(piperazin-1-yl)ethoxy)phenyl)-6-(1-methylcyclopropoxy)-9H-purin-9-yl)methyl)nicotinonitrile]
[1]; [3]
  IC50: > 10 µM
[2]; [4]
  IC50: > 7.94 µM

## Cc1ccnc(Cn2c(-c3ccc(CCN4CCCC4)cc3Cl)nc3c(OC4(C)CC4)ncnc32)c1 [Example T505, 8-(2-chloro-4-(2-(pyrrolidin-1-yl)ethyl)phenyl)-6-(1-methylcyclopropoxy)-9-((4-methylpyridin-2-yl)methyl)-9H-purine]
[1]; [3]
  IC50: > 10 µM
[2]; [4]
  IC50: 0.158 µM

## C[C@H]1CNCCN1CCOc1ccc(-c2nc3c(OC4(C)CC4)ncnc3n2Cc2ccccc2)c(Cl)c1 [Example R10, (S)-9-benzyl-8-(2-chloro-4-(2-(2-methylpiperazin-1-yl)ethoxy)phenyl)-6-(1-methylcyclopropoxy)-9H-purine]
[1]; [5]
  IC50: 2 µM
[2]; [6]
  IC50: 0.126 µM

## CC1(Oc2ncnc3c2nc(-c2ccc(OCCN4CCC[C@@H](O)C4)cc2Cl)n3Cc2ccccc2)CC1 [Example R7, (R)-1-(2-(4-(9-benzyl-6-(1-methylcyclopropoxy)-9H-purin-8-yl)-3-chlorophenoxy)ethyl)piperidin-3-ol]
[1]; [5]
  IC50: 3.16 µM
[2]; [6]
  IC50: 0.0631 µM

## Cc1cnc(Cn2c(-c3ccc(OC[C@H]4CCCN4C)cc3Cl)nc3c(OC4(C)CC4)ncnc32)s1 [Example T240, (R)-2-((8-(2-chloro-4-((1-methylpyrrolidin-2-yl)methoxy)phenyl)-6-(1-methylcyclopropoxy)-9H-purin-9-yl)methyl)-5-methylthiazole]
[1]; [7]
  IC50: > 10 µM
[2]; [8]
  IC50: 0.316 µM

## CNCCOc1ccc(-c2nc3c(OC4(C)CC4)ncnc3n2Cc2cc(C)ccn2)c(Cl)c1 [Example T137, 2-(3-chloro-4-(6-(1-methylcyclopropoxy)-9-((4-methylpyridin-2-yl)methyl)-9H-purin-8-yl)phenoxy)-N-methylethan-1-amine]
[1]; [3]
  IC50: > 10 µM
[2]; [4]
  IC50: 0.2 µM

## CC1(Oc2ncnc3c2nc(-c2ccc(CC(N)=O)cc2Cl)n3Cc2cc(Cl)ccn2)CC1 [Example 38, 2-(3-Chloro-4-(9-((4-chloropyridin-2-yl)methyl)-6-(1-methylcyclopropoxy)-9H-purin-8-yl)phenyl)acetamide]
[1]; DLD-1, 168 h, DLD-1 (BRCA2 wt control), 7 days, Cell Titre Glo 3D, read-out: POLQ PD Prolif Lumin DLD1 Mean pIC50 (converted)
  IC50: > 10 µM
[2]; DLD-1, 288 h, DLD-1 BRCA2−/−, 12 days, Cell Titre Glo 3D, read-out: POLQ PD Prolif Lumin BRCA2 −/− Mean pIC50 (converted)
  IC50: 0.398 µM

## CC1(Oc2cccc3c2nc(-c2ccc(OCCN4CCNCC4)cc2Cl)n3Cc2ccccc2)CCC1 [Example P2, 1-benzyl-2-(2-chloro-4-(2-(piperazin-1-yl)ethoxy)phenyl)-4-(1-methylcyclobutoxy)-1H-benzo[d]imidazole]
[1]; [5]
  IC50: 2.51 µM
[2]; [6]
  IC50: 0.794 µM

## CC1(Oc2ncnc3c2nc(-c2ccc(OCCC(C)(C)C(=O)O)cc2Cl)n3Cc2cccc(Cl)c2)CC1 [Example T435, 4-(3-chloro-4-(9-(3-chlorobenzyl)-6-(1-methylcyclopropoxy)-9H-purin-8-yl)phenoxy)-2,2-dimethylbutanoic acid]
[1]; DLD-1, proliferation, luminescence, second Prolif column (c6), taken as DLD-1 BRCA2 wt control, read-out: POLQ PD Prolif Lumin (converted)
  IC50: > 10 µM
[2]; DLD-1, proliferation, luminescence, taken as DLD-1 BRCA2-/-, read-out: POLQ PD Prolif Lumin (converted)
  IC50: 0.2 µM

## C#Cc1cc(OCCN2CCN(C)CC2)ccc1-c1nc2c(OC3(C)CC3)ncnc2n1Cc1ccccc1 [Example H9, 9-benzyl-8-(2-ethynyl-4-(2-(4-methylpiperazin-1-yl)ethoxy)phenyl)-6-(1-methylcyclopropoxy)-9H-purine]
[1]; [5]
  IC50: 3.98 µM
[2]; [6]
  IC50: 0.501 µM

## Cc1ccnc(Cn2c(-c3ccc(S(N)(=O)=O)cc3Cl)nc3c(OC4(C)CC4)ncnc32)c1 [Example T9, 3-chloro-4-(6-(1-methylcyclopropoxy)-9-((4-methylpyridin-2-yl)methyl)-9H-purin-8-yl)benzenesulfonamide]
[1]; DLD-1, DLD1 BRCA2 wt cells, mean, read-out: POLQ PD Prolif Lumin DLD1 mean PIC50 (converted)
  IC50: > 10 µM
[2]; DLD-1, DLD-1 BRCA2 −/− cells, mean, read-out: POLQ PD Prolif Lumin BRCA2 −/− mean pIC50 (converted)
  IC50: 0.501 µM

## Cc1cnc(Cn2c(-c3ccc(OCCN4CCNCC4)cc3Cl)nc3c(OC4(C)CC4)ncnc32)cc1C [Example T596, 8-(2-chloro-4-(2-(piperazin-1-yl)ethoxy)phenyl)-9-((4,5-dimethylpyridin-2-yl)methyl)-6-(1-methylcyclopropoxy)-9H-purine]
[1]; DLD-1, second proliferation column, DLD-1 BRCA2 wt control, read-out: POLQ PD Prolif Lumin (converted)
  IC50: > 10 µM
[2]; DLD-1, first proliferation column, DLD-1 BRCA2-/-, read-out: POLQ PD Prolif Lumin (converted)
  IC50: 5.01 µM

## CC(C)(CCOc1cccc(-c2nc3c(OC4(C)CC4)ncnc3n2Cc2cccc(Cl)c2)c1Cl)CC(=O)O [Example U28, 5-(2-chloro-3-(9-(3-chlorobenzyl)-6-(1-methylcyclopropoxy)-9H-purin-8-yl)phenoxy)-3,3-dimethylpentanoic acid]
[1]; DLD-1, DLD1 BRCA2 wt, mean, read-out: POLQ PD Prolif Lumin DLD1 mean pIC50 (converted)
  IC50: > 10 µM
[2]; DLD-1, DLD-1 BRCA2 −/−, mean, read-out: POLQ PD Prolif Lumin BRCA2 −/− mean pIC50 (converted)
  IC50: 0.0794 µM

## CC(CCOc1ccc(-c2nc3c(OC(C)(C)C(F)(F)F)ncnc3n2Cc2cccc(Cl)c2)c(Cl)c1)C(=O)O (racemic) [Example T274, 4-(3-chloro-4-(9-(3-chlorobenzyl)-6-((1,1,1-trifluoro-2-methylpropan-2-yl)oxy)-9H-purin-8-yl)phenoxy)-2-methylbutanoic acid]
[1]; [7]
  IC50: > 10 µM
[2]; [8]
  IC50: 0.316 µM
